From ChEMBL document CHEMBL4507311, “Data for DCP probe A-1155463” (2021)
pKi: −log10 of the molar value.

What was measured:
[1] = biological target: Serine/threonine-protein kinase 36 (Homo sapiens) (UniProt Q9NRP7); settings: Compound concentration 1000.0 nM
[2] = biological target: Beta-1 adrenergic receptor (Homo sapiens) (UniProt P08588); assay: Beta1 (h) Eurofins-Cerep binding assay; design: ligand concentration 0.3 nM; settings: filed as agonist, Compound concentration 10.0 uM
[3] = biological target: STE20-like serine/threonine-protein kinase (Homo sapiens) (UniProt Q9H2G2); settings: Compound concentration 1000.0 nM
[4] = biological target: Cannabinoid receptor 1 (Homo sapiens) (UniProt P21554); assay: CB1 (h) Eurofins-Cerep binding assay; design: ligand concentration 0.5 nM; settings: filed as agonist, Compound concentration 10.0 uM
[5] = biological target: SRSF protein kinase 1 (Homo sapiens) (UniProt Q96SB4); settings: Compound concentration 1000.0 nM
[6] = biological target: D(1A) dopamine receptor (Homo sapiens) (UniProt P21728); settings: Compound concentration 10.0 uM
[7] = biological target: Substance-P receptor (Homo sapiens) (UniProt P25103); assay: NK1 (h) Eurofins-Cerep binding assay; design: ligand concentration 0.05 nM; settings: filed as agonist, Compound concentration 10.0 uM
[8] = biological target: Cyclin-dependent kinase 15 (Homo sapiens) (UniProt Q96Q40); settings: Compound concentration 1000.0 nM
[9] = test system: Serine/threonine-protein kinase B-raf (Homo sapiens), P15056 [V600E]; settings: Compound concentration 1000.0 nM
[10] = biological target: 5-hydroxytryptamine receptor 7 (Homo sapiens) (UniProt P34969); assay: 5-HT7 (h) Eurofins-Cerep binding assay; design: ligand concentration 4 nM; settings: filed as agonist, Compound concentration 10.0 uM
[11] = biological target: Atypical kinase COQ8A, mitochondrial (Homo sapiens) (UniProt Q8NI60); settings: Compound concentration 1000.0 nM
[12] = biological target: Vascular endothelial growth factor receptor 2 (Homo sapiens) (UniProt P35968); settings: Compound concentration 1000.0 nM
[13] = biological target: Ephrin type-B receptor 2 (Homo sapiens) (UniProt P29323); settings: Compound concentration 1000.0 nM
[14] = biological target: Sodium-dependent noradrenaline transporter (Homo sapiens) (UniProt P23975); settings: Compound concentration 10.0 uM
[15] = biological target: T1, Muscarinic acetylcholine receptor M5 (Homo sapiens) (UniProt P08912); settings: Compound concentration 10.0 uM
T1 sequence (whole entry): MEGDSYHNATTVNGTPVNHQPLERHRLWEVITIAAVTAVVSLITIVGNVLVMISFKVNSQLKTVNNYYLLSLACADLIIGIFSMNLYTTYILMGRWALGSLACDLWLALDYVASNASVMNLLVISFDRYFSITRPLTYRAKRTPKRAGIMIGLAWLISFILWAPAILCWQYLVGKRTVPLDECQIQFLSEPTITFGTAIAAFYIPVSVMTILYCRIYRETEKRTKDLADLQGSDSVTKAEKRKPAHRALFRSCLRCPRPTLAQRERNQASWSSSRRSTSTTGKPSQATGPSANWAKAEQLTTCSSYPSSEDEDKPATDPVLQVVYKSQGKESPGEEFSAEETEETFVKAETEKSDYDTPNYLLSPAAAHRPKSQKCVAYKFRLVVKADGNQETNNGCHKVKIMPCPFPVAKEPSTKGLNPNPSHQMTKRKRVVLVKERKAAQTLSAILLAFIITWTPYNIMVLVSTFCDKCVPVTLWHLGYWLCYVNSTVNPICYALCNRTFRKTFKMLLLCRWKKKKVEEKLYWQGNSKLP

[16] = biological target: Sigma intracellular receptor 2 (Homo sapiens, UniProt Q5BJF2); assay: GPCRScan assay: inhibition of Sigma 2; design: radioligand conc. used [nm] 5.0, parental cells HEKT
[17] = biological target: Mitogen-activated protein kinase 1 (Homo sapiens) (UniProt P28482); settings: Compound concentration 1000.0 nM
[18] = biological target: Urotensin-2 receptor (Homo sapiens) (UniProt Q9UKP6); assay: UT (h) Eurofins-Cerep binding assay; design: ligand concentration 0.1 nM; settings: filed as agonist, Compound concentration 10.0 uM
[19] = test system: Receptor-type tyrosine-protein kinase FLT3 (Homo sapiens), P36888 [D835V]; settings: Compound concentration 1000.0 nM
[20] = test system: Phosphatidylinositol 4,5-bisphosphate 3-kinase catalytic subunit alpha isoform (Homo sapiens), P42336 [Q546K]; settings: Compound concentration 1000.0 nM
[21] = biological target: Ephrin type-A receptor 8 (Homo sapiens) (UniProt P29322); settings: Compound concentration 1000.0 nM
[22] = biological target: MAO-A (amine oxidase [flavin-containing] A) (Rattus norvegicus, UniProt P21396); assay: MAO-A Eurofins-Cerep binding assay; design: incubation time 60 min, incubation temperature 37°C, ligand concentration 10 nM; settings: rat cerebral cortex, probe [3H]Ro 41-1049 (10 nM), compound concentration 10 uM, read-out: % Inhibition of Control Specific Binding (Mean n=2)
[23] = biological target: Dual specificity tyrosine-phosphorylation-regulated kinase 1B (Homo sapiens) (UniProt Q9Y463); settings: Compound concentration 1000.0 nM
[24] = biological target: Eukaryotic translation initiation factor 2-alpha kinase 1 (Homo sapiens) (UniProt Q9BQI3); settings: Compound concentration 1000.0 nM
[25] = biological target: Serine/threonine-protein kinase NIM1 (Homo sapiens) (UniProt Q8IY84); settings: Compound concentration 1000.0 nM
[26] = test system: Mast/stem cell growth factor receptor Kit (Homo sapiens), P10721 [V559D,V654A]; settings: Compound concentration 1000.0 nM
[27] = biological target: Calcitonin-gene-related peptide receptor, CALCRL/RAMP1 (Homo sapiens) (UniProt O60894+Q16602); assay: CGRP (h) Eurofins-Cerep binding assay; format: protein-complex assay; design: ligand concentration 0.03 nM; settings: filed as agonist, Compound concentration 10.0 uM
[28] = biological target: Alpha-1D adrenergic receptor (Homo sapiens) (UniProt P25100); settings: Compound concentration 10.0 uM
[29] = biological target: Ribosomal protein S6 kinase alpha-5 (Homo sapiens) (UniProt O75582); settings: Compound concentration 1000.0 nM
[30] = biological target: Beta-2 adrenergic receptor (Homo sapiens) (UniProt P07550); assay: Beta2 (h) Eurofins-Cerep binding assay; design: ligand concentration 0.3 nM; settings: filed as antagonist, Compound concentration 10.0 uM
[31] = biological target: Translocator protein (Rattus norvegicus) (UniProt P16257); assay: BZD (peripheral) Eurofins-Cerep binding assay; design: ligand concentration 0.2 nM; settings: filed as antagonist, Compound concentration 10.0 uM
[32] = biological target: Casein kinase I isoform alpha (Homo sapiens) (UniProt P48729); settings: Compound concentration 1000.0 nM
[33] = biological target: Macrophage colony-stimulating factor 1 receptor (Homo sapiens) (UniProt P07333); settings: Compound concentration 1000.0 nM
[34] = test system: Epidermal growth factor receptor (Homo sapiens), P00533 [T790M]; settings: Compound concentration 1000.0 nM
[35] = biological target: Glycogen synthase kinase-3 alpha (Homo sapiens) (UniProt P49840); settings: Compound concentration 1000.0 nM
[36] = biological target: Muscarinic acetylcholine receptor M3 (Homo sapiens) (UniProt P20309); assay: M3 (h) Eurofins-Cerep binding assay; design: ligand concentration 0.2 nM; settings: filed as antagonist, Compound concentration 10.0 uM
[37] = biological target: 5-hydroxytryptamine receptor 4 (Homo sapiens) (UniProt Q13639); assay: 5-HT4 e (h) Eurofins-Cerep binding assay; design: ligand concentration 0.3 nM; settings: filed as antagonist, Compound concentration 10.0 uM
Chain of 5-hydroxytryptamine receptor 4 (Homo sapiens) (Q13639 whole entry): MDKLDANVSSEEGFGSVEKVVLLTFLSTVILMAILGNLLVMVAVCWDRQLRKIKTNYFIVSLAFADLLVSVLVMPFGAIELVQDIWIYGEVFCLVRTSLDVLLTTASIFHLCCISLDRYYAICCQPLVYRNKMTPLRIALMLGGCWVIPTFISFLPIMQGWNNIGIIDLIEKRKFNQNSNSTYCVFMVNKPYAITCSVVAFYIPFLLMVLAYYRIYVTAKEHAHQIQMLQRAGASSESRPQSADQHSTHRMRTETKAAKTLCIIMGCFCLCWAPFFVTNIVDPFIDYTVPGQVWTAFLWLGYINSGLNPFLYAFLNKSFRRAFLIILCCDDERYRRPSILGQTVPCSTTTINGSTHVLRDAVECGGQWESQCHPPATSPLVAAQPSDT

Chain of Urotensin-2 receptor (Homo sapiens) (Q9UKP6 whole entry): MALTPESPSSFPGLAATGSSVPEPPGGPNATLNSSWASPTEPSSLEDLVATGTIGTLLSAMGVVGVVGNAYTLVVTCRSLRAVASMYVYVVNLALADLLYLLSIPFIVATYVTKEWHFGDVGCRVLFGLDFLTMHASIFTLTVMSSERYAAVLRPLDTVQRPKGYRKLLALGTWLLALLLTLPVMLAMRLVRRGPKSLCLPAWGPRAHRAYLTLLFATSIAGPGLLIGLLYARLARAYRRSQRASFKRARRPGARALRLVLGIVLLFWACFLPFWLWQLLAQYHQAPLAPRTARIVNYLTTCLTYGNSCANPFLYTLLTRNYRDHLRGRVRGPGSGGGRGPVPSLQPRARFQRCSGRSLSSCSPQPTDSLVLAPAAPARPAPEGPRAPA
Chain of Substance-P receptor (Homo sapiens) (P25103 whole entry): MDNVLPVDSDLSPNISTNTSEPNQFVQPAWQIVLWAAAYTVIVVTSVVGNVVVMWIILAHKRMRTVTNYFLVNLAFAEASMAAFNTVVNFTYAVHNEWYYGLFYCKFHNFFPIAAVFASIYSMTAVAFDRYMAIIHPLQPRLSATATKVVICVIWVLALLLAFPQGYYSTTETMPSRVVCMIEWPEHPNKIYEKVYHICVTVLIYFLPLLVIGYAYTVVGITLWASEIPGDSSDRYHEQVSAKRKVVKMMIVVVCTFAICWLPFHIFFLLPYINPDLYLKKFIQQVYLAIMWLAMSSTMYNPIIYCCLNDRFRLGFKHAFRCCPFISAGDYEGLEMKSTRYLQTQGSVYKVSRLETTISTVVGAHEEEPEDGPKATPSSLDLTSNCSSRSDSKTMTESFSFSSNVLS
Chain of Translocator protein (Rattus norvegicus) (P16257 whole entry, looked up, canonical isoform): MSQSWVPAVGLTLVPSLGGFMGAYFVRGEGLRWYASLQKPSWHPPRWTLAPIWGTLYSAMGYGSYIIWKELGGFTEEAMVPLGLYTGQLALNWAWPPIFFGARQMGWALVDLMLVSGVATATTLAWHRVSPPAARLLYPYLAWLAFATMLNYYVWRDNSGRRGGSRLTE
Chain of Beta-2 adrenergic receptor (Homo sapiens) (P07550 whole entry, looked up): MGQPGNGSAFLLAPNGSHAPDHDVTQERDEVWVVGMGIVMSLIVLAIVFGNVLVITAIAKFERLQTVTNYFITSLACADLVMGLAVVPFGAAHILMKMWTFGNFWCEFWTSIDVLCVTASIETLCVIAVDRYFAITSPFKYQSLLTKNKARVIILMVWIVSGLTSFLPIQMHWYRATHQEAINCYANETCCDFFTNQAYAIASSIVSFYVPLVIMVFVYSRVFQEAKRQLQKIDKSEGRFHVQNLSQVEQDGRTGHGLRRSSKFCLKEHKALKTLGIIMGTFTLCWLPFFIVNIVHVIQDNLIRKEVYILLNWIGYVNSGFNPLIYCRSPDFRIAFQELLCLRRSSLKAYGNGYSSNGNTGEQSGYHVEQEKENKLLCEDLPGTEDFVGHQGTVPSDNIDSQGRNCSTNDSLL
Chain of Cannabinoid receptor 1 (Homo sapiens) (P21554 whole entry): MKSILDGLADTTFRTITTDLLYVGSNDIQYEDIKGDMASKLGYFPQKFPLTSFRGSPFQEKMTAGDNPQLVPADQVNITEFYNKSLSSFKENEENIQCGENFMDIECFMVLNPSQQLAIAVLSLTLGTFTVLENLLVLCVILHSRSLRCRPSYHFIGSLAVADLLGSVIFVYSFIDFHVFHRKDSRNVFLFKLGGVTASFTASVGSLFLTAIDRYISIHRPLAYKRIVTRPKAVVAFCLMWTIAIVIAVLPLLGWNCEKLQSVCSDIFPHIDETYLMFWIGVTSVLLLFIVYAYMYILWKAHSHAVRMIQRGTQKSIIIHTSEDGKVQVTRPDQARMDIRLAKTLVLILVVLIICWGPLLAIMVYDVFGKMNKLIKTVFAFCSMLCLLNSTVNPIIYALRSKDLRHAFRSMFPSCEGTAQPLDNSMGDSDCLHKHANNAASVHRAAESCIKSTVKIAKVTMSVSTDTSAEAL
Chain of MAO-A (amine oxidase [flavin-containing] A) (P21396 whole entry): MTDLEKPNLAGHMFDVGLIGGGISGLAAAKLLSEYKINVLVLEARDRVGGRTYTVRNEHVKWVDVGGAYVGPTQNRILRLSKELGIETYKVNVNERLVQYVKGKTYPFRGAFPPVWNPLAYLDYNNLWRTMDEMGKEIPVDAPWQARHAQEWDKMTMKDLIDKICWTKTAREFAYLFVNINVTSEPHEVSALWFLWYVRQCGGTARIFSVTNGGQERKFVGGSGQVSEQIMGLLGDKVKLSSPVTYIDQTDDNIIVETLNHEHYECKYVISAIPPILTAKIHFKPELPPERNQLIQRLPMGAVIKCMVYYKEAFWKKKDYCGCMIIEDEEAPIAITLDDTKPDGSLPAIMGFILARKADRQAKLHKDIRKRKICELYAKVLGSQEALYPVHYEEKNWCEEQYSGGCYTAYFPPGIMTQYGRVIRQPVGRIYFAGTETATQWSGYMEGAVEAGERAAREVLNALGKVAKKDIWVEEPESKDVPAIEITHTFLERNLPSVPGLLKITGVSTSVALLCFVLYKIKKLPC
Chain of 5-hydroxytryptamine receptor 7 (Homo sapiens) (P34969 whole entry): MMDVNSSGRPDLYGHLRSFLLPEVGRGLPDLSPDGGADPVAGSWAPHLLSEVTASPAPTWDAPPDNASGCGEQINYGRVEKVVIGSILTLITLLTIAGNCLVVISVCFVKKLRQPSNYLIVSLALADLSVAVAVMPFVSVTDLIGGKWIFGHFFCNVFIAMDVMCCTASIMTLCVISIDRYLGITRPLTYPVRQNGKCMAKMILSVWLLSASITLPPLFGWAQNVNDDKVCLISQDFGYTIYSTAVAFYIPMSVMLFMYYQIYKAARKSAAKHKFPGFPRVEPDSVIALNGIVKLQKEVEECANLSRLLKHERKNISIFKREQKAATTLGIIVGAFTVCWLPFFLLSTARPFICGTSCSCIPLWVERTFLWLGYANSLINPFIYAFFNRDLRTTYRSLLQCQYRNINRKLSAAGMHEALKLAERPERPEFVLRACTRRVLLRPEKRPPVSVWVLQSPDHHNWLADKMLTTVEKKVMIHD
Chain of Beta-1 adrenergic receptor (Homo sapiens) (P08588 whole entry, looked up): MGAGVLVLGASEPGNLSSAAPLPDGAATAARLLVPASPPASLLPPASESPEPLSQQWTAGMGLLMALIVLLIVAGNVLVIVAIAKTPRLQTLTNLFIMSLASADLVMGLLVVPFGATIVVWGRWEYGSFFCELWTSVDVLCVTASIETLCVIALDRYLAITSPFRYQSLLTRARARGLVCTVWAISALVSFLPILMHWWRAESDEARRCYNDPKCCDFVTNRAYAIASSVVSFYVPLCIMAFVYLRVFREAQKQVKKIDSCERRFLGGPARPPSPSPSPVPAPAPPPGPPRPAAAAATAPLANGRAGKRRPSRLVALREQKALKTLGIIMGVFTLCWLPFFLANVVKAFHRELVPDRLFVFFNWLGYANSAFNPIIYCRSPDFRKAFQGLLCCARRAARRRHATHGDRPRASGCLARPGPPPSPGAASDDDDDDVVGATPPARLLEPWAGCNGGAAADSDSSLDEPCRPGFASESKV
Chain of Muscarinic acetylcholine receptor M3 (Homo sapiens) (P20309 whole entry, looked up): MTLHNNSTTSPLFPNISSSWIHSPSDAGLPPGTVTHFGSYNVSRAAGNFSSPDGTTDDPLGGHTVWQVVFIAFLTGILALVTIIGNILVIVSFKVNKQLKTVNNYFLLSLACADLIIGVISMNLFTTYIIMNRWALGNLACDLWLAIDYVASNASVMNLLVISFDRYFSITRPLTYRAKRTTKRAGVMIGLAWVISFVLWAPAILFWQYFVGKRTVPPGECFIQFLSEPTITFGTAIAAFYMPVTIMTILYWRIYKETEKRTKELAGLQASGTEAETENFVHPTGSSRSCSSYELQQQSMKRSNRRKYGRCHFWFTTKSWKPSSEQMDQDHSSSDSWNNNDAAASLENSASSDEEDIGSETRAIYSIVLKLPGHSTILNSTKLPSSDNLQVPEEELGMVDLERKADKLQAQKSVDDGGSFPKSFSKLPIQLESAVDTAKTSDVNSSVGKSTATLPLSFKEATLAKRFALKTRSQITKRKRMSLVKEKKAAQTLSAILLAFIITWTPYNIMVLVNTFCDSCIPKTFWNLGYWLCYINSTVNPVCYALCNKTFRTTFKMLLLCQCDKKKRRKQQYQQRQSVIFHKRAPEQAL
Chain of Sigma intracellular receptor 2 (Q5BJF2 whole entry): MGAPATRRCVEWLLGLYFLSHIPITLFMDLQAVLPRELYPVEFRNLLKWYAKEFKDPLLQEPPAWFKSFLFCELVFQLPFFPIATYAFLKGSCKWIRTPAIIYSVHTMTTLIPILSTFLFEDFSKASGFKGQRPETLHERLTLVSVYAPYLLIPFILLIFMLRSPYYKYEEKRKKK
Chain of Mitogen-activated protein kinase 1 (Homo sapiens) (P28482 whole entry): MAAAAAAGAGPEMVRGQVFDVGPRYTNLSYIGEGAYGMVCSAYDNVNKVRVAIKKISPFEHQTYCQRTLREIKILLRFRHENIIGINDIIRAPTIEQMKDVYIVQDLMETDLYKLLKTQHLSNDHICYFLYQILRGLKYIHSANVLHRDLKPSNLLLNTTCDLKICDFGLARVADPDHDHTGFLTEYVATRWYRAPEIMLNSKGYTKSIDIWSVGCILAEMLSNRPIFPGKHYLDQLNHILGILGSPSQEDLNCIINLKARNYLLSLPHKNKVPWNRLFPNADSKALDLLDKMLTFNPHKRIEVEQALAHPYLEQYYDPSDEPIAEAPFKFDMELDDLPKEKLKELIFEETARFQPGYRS

## CN(C)CC#Cc1ccc(OCCCc2sc(N3CCc4cccc(C(=O)Nc5nc6ccccc6s5)c4C3)nc2C(=O)O)c(F)c1 [A-1155463]
[1]
  residual activity: 99%
[2]
  % Inhibition of Control Specific Binding (Mean n=2): 1.4%
[3]
  residual activity: 100%
[4]
  % Inhibition of Control Specific Binding (Mean n=2): 2.6%
[5]
  residual activity: 100%
[6]
  inhibition: 24.6%
[7]
  % Inhibition of Control Specific Binding (Mean n=2): 3.3%
[8]
  residual activity: 100%
[9]
  residual activity: 79%
[10]
  % Inhibition of Control Specific Binding (Mean n=2): 16.9%
[11]
  residual activity: 100%
[12]
  residual activity: 100%
[13]
  residual activity: 100%
[14]
  inhibition: 42.9%
[15]
  inhibition: 12.6%
[16]
  pKi: 6.09
[17]
  residual activity: 100%
[18]
  % Inhibition of Control Specific Binding (Mean n=2): 94.9%
[19]
  residual activity: 100%
[20]
  residual activity: 79%
[21]
  residual activity: 100%
[22]
  inhibition at 60 min, 10 µM: 74.5%
[23]
  residual activity: 87%
[24]
  residual activity: 98%
[25]
  residual activity: 100%
[26]
  residual activity: 78%
[27]
  % Inhibition of Control Specific Binding (Mean n=2): -6.8%
[28]
  inhibition: 1.52%
[29]
  residual activity: 83%
[30]
  % Inhibition of Control Specific Binding (Mean n=2): -7%
[31]
  % Inhibition of Control Specific Binding (Mean n=2): 41.3%
[32]
  residual activity: 71%
[33]
  residual activity: 87%
[34]
  residual activity: 100%
[35]
  residual activity: 89%
[36]
  % Inhibition of Control Specific Binding (Mean n=2): 17.4%
[37]
  % Inhibition of Control Specific Binding (Mean n=2): 6.7%

## O=C(Nc1nc2ccccc2s1)c1cccc2c1CN(c1nc(C(=O)O)c(CCOc3ccc(-n4ncc5cncnc54)cc3)s1)CC2 [A-1107969]
[2]
  % Inhibition of Control Specific Binding (Mean n=2): -0.4%
[4]
  % Inhibition of Control Specific Binding (Mean n=2): -4.1%
[7]
  % Inhibition of Control Specific Binding (Mean n=2): 8.7%
[10]
  % Inhibition of Control Specific Binding (Mean n=2): 11.4%
[18]
  % Inhibition of Control Specific Binding (Mean n=2): 62.2%
[22]
  inhibition at 60 min, 10 µM: 11.1%
[27]
  % Inhibition of Control Specific Binding (Mean n=2): -9.4%
[30]
  % Inhibition of Control Specific Binding (Mean n=2): -6.9%
[31]
  % Inhibition of Control Specific Binding (Mean n=2): 77.2%
[36]
  % Inhibition of Control Specific Binding (Mean n=2): -4.4%
[37]
  % Inhibition of Control Specific Binding (Mean n=2): -4%
